Source: patent US5468760A, “Aralkyl-N-hydroxyureas as inhibitors of 5-lipoxygenase and oxidation of low density lipoprotein” (American Home Products Corporation, priority 1993, dated 1995)

Assays:
[1] = molecular target: T1, 5-Lipoxygenase (Homo sapiens, UniProt P09917); assay: Inhibition of 5-Lipoxygenase in Human Whole Blood (LTB4, calcium ionophore A23187); assay type: cell-based; conditions: 1 μM
T1 construct: endogenous in cells; host or cells: human whole blood from male donors (results expressed per 10^6 neutrophils)
T1 sequence (P09917 1-674): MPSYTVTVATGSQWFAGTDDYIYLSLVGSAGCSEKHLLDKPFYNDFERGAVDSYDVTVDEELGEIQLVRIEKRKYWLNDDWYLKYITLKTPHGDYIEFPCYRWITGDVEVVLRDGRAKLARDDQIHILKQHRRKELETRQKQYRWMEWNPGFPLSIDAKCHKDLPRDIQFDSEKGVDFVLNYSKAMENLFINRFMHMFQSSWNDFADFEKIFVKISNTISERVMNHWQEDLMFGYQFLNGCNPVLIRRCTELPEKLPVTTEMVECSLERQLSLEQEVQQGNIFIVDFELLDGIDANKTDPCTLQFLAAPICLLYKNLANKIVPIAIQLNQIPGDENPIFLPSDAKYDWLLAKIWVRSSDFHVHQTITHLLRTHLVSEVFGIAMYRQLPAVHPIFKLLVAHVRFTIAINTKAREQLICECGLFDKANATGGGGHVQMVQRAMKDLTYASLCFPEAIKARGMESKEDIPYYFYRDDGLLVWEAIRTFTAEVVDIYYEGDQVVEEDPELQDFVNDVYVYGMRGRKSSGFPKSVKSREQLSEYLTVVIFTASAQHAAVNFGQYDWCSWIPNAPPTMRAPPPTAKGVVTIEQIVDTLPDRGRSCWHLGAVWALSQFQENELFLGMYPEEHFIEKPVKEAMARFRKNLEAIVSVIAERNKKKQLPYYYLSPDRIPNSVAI
Experimental: 1. Inhibition of 5-Lipoxygenase in Human Whole Blood
Blood is obtained in 50-100 ml quantities from male donors. White blood cell counts and differentials are made. Two ml of blood are placed in a 15 ml polypropylene test tube. Test compounds are solubilized in dimethylsulfoxide and diluted in 1:10 in 10% bovine serum albumin in phosphate buffered saline, pH 7.4 resulting in a final dimethylsulfoxide concentration of 0.1% in the blood. Then, solutions of test compounds are added to the blood in a shaking water bath at 37° C. for 10 minutes prior to the addition of 30 μM calcium ionophore (A23 187, Sigma). After ionophore administration, whole blood samples are mixed and incubated for 20 minutes at 37° C. in a shaking water bath. Incubation is terminated by placing samples in an ice bath and immediately adding ethylene glycol-bis-(β-aminoethyl ether)-N,N,N',N'-tetraaceticacid (10 mM). Samples are mixed and centrifuged at 1200 x g for 15 minutes at 4° C. Preparation of samples for evaluation by RIA or ELISA is carried out by the following protocol. Plasma is removed from sample tubes, placed in 15 ml polypropylene test tubes containing 8 ml methanol, and then vortexed to precipitate protein. Samples are stored at -70° C. overnight. The next day, samples are centrifuged at 200 x g for 15 minutes at 4° C. to pellet the precipitate. Samples are dried in a Savant SpeedVac Concentrator, Model SVC 200H, reconstituted to original volume with ice cold RIA or ELISA buffer, and stored at -70° C. until assayed. The assay for eicosanoids (LTB4, TxB2, and PGE2) is performed as described by the manufacturer of the [^3 H]-RIA kit or ELISA kit (LTB4 -Amersham, TxB2 and PGE2 -Caymen Chemical).
The total eicosanoid level in 2 ml of blood is calculated and reported as ng/10^6 neutrophils. Significance is determined by a one-way analysis of variance with least significant difference (LSD) comparisons to control (p≤0.05) and IC50 's (μM) are determined by regression analysis (Finney, 1978). Drug effects are expressed as percent change from control values.

[2] = system: Lipoxygenase; assay: Ex-Vivo Measurement of Lipoxygenase Inhibition in Orally Dosed Rats (LTB4); design: species or system rat (male Sprague Dawley); conditions: p.o., pretreatment period 6 hr
Experimental: 2. Ex-Vivo Measurement of Lipoxygenase Inhibition in Orally Dosed Rats
Male Sprague Dawley rats (Charles River) weighing between 180 g and 200 g were dosed orally with an invention compound (1-25 mg/kg, po) suspended in 0.5% Tween 80®. After an interval of 3 or 6 hours, the rats were anesthetized with metofane (n=4/group) and blood collected in heparinized tubes. White blood cell counts and differentials were made. One ml of blood from each animal was placed in a 5 ml plastic tube in a shaker bath at 37° C. A23187 at a final concentration of 10 μM was added to the blood and the blood vortexed and incubated for 15 min at […] with gentle shaking. Incubation was terminated by vortexing sample and centrifuging immediately at 1200 xG for 15 min at 4° C. The plasma was transferred to 15 ml plastic tubes each containing 8 ml of methanol to precipitate protein followed by vortexing. The samples were stored at -70 ° C. overnight and the next day the samples were centrifuged at 800 xG for 15 min to pellet the precipitate. The samples were dried in a Savant SpeedVac Concentrator Model SVC 200H and reconstituted to the original volume with cold RIA or ELISA buffer. The reconstituted samples were stored at -70° C. until assayed. The assay for LTB4 was performed according to the directions of the [^3 H]RIA kit or ELISA kit (Seragen). The total metabolite level in 1 ml of blood is calculated and reported as ng/10^6 neutrophils. Significance is determined by a one-way analysis of variance with LSD comparisons to control (p≤0.05).

[3] = system: LTB4 Synthesis; assay: Reverse Passive Arthus Reaction (pleurisy), LTB4 in pleural exudate; assay type: in vivo, rat (male Lewis); conditions: 10 mg/kg, p.o.
Experimental: 3. Reverse Passive Arthus Reaction
A reverse passive Arthus reaction is induced in the pleural cavity of male Lewis rats (150-200 g; fasted overnight prior to use) by the intravenous administration of bovine serum albumin (BSA; 4 mg/0.2 ml) followed 30 minutes later by the injection of rabbit anti-BSA (1 mg/0.2 ml; lyophilized IgG fraction; Organon Teknika, West Chester, Pa.) into the right pleural space under halothane anesthesia. Drugs or vehicle (0.5% Tween-80) control are administered orally in a volume of 1 ml/100 g body weight at 1 hour prior to the anti-BSA. Animals are sacrificed at either the time of peak eicosanoid production (i.e. 5 minutes after anti-BSA for immunoreactive TxB2, 10 minutes for immunoreactive LTB4, 20 minutes for immunoreactive LTC4) or at the time of peak neutrophil infiltration (4 hours after anti-BSA) by CO2 inhalation. The pleural cavity is then exposed., the fluid exudate removed by gentle vacuum aspiration and the volume of exudate is recorded. For the determination of cellular infiltration, the pleural cavity is rinsed with 3 ml of 0.1% EDTA in sterile saline, and the recovered wash is pooled with the exudate. Cell number is determined on a model ZBI Coulter counter. For determination of eicosanoid production, undiluted pleural exudate is microfuged and the supernatant is extracted with ethanol (8-10 times volume). Extracts are either stored at -20° C., or are evaporated to dryness under a stream of N2 and reconstituted in radioimmunoassay (RIA) buffer.
Eicosanoids are quantitated by RIA according to the procedure specified by the RIA kit manufacturer (Advanced Magnetics, Cambridge, Mass.). Briefly, 100 μl of ^3 H-labeled eicosanoid and 100 μl of specific antibody are sequentially added to 100 μl of extracted pleural exudate in BGG-phosphate buffer which contains 0.01M phosphate, 0.1% bovine gamma globulin and 0.1% sodium azide at pH 7.0. Antibody-bound eicosanoid is separated from unbound eicosanoid by the addition of 750 μl of dextran (0.4%)-coated charcoal (Norit A) containing 0.1% sodium azide. The mixture is centrifuged at 2000 RPM at 5° C. for 15 minutes to pellet the charcoal and adsorbed unbound eicosanoid. Antibody-bound labeled eicosanoid is quantitated by counting in a liquid scintillation counter, and is correlated to concentration by a standard curve.

[4] = system: LT-dependent bronchoconstriction; assay: Inhibition of Bronchoconstriction in Guinea Pigs Induced by Exogenously Administered Antigen; assay type: in vivo, guinea pig (male); conditions: Cavia porcellus, 5 min, 5 min post-antigen challenge
Experimental: 4. Inhibition of Brochoconstriction in Guinea Pigs Induced by Exogenously Administered Antigen
Male guinea pigs (Charles River, Wilmington, Mass.) were sensitized 3-4 weeks prior to antigen challenge by administration of 2 i.m. injections of ovalbumin, 1 into each hind limb (35 mg total). Sensitized animals (500-600 g) were fasted overnight prior to experimentation. Conscious animals were then dosed p.o. with drug or vehicle alone (0.5% Tween 80 in H2 O) at the indicated times prior to antigen challenge, or anesthetized animals were dosed i.v. with drug or vehicle alone (DMSO) 5 min prior to antigen challenge. Animals were anesthetized by urethane (2.8 g/kg i.p.). A carotid artery and jugular vein were cannulated to allow for the monitoring of blood pressure and the administration of drugs, respectively. The trachea was then cannulated and connected to a Harvard Apparatus rodent ventilator (S. Natick, Mass.). Spontaneous respiration was abolished by the administration of succinylcholine (2.5 mg/kg i.v.). The animals were then ventilated with room air at a rate of 65 breaths per min. Airway inflation pressure was measured using a Statham pressure transducer (Gould Instruments, Cleveland, Ohio) connected to the tracheal cannula via a side-arm and recorded on a Grass Instruments recorder (Quincy, Mass.). The tidal volume (approximately 10 cc/kg) was adjusted to give a baseline inflation pressure of 8-10 cm H2 O at end inspiration. Animals were then allowed 20 min to stabilize.
Following the stabilization period, animals were given i.v. injections of pyrilamine (5 mg/kg), propranolol (0.1 mg/kg) and indomethacin (10 mg/kg) at 15, 10 and 5 min, respectively, prior to antigen challenge. This pretreatment results in an LT-dependent bronchoconstriction following antigen challenge, which was accomplished by i.v. administration of ovalbumin (10 mg/kg). Only one bronchoconstriction per animal was induced. End-inspiratory inflation pressure (in cm H2 O over baseline) was measured at 5 min post-antigen challenge. A mean value and standard error for the % inhibition of control bronchoconstriction in each drug-treated group was then calculated.

[5] = system: LDL; conditions: cell mediated and Cu^+2 mediated; cited from earlier work
[6] = system: atherosclerotic lesions; conditions: WHHL rabbits; cited from earlier work

Compound | inhibition at 1 µM [1] [%] | % Inhibition of LTB4 ([2]; 5 mg/kg) [%] | % Inhibition LTB4 Synthesis [3] [%] | % Inhibition of LTB4 ([2]; 10 mg/kg) [%] | inhibition in vivo at 10 mg/kg ([4]; iv, 10 mg/kg i.v.) [%] | inhibition in vivo at 25 mg/kg ([4]; po, 25 mg/kg p.o.) [%] | inhibition of oxidative modification of LDL [5] | inhibition of formation of atherosclerotic lesions [6]
Cc1oc(-c2ccc(C(F)(F)F)cc2)nc1COc1cccc(CN(O)C(N)=O)c1 [Example 2, 1-Hydroxy-1-[3-[5-methyl-2-(4-trifluoromethyl-phenyl)-oxazol-4-ylmethoxy]-benzyl]-urea] | 48 | 45 | 59 |  |  |  |  | 
NC(=O)N(O)Cc1cccc(OCc2coc(-c3ccc(F)cc3)n2)c1 [Example 3, 1-[3-[2-(4-fluoro-phenyl)-oxazol-4-ylmethoxy]-benzyl]-1-hydroxy-urea] | 74 |  |  | 85 | 84 | 26 |  | 
CC(C)(Sc1cc(C(C)(C)C)c(O)c(C(C)(C)C)c1)Sc1cc(C(C)(C)C)c(O)c(C(C)(C)C)c1 [Probucol] |  |  |  |  |  |  | inhibits both cell mediated and Cu^+2 mediated oxidative modification of LDL | inhibit the formation of atherosclerotic lesions in WHHL rabbits
